Four compounds from ChEMBL document CHEMBL1136839, “3,4-Disubstituted isothiazoles: novel potent inhibitors of VEGF receptors 1 and 2” (Bioorg Med Chem Lett, 2009) can be followed below.

By inhibition is commonly meant the change of the read-out against control, counted positive when it falls. For orientation: IC50 means the concentration that gives 50% inhibition. Broadly, the Papp is the rate of passage across a membrane or cell layer, normalised by area and donor concentration. A higher Papp goes with fast passage. Broadly, the Ki is a measure of affinity in units of concentration, obtained from inhibition or displacement. Higher therefore signals weaker binding.

Data set [1] concerns the target Cyclin-dependent kinase 1 (Homo sapiens) (UniProt P06493). The data set can be described thus: Inhibition of CDK1 at 10 uM by HTRF assay. A general note: Time-resolved FRET reads energy transfer from a long-lived donor to a nearby acceptor.
Data set [2] concerns the target Vascular endothelial growth factor receptor 1 (Homo sapiens, UniProt P17948). The data set can be described thus: Inhibition of VEGFR1 assessed as blockade of pGAT-biotin phosphorylation in presence of 2 uM ATP by HTRF assay.
The target in data set [3] is T1, Vascular endothelial growth factor receptor 2 (Homo sapiens, UniProt P35968). In words: Inhibition of VEGFR2 assessed as blockade of pGAT-biotin phosphorylation in presence of 2 uM ATP by HTRF assay.
In data set [4] the target is Receptor-type tyrosine-protein kinase FLT3 (Homo sapiens) (UniProt P36888). The data set can be described thus: Inhibition of Flt3 at 10 uM by HTRF assay.
Data set [5] addresses Insulin receptor (Homo sapiens) (UniProt P06213). The data set can be described thus: Inhibition of InR at 10 uM by HTRF assay.
The target in data set [6] is Receptor tyrosine-protein kinase erbB-2 (Homo sapiens) (UniProt P04626). In words: Inhibition of ErbB2 at 10 uM by HTRF assay.
Data set [7] addresses Insulin-like growth factor 1 receptor (Homo sapiens) (UniProt P08069). The data set can be described thus: Inhibition of IGF1R at 10 uM by HTRF assay.
For data set [8], the target named is T1, Vascular endothelial growth factor receptor 2. In words: Inhibition of VEGFR2 expressed in HEK293 cells assessed as inhibition of receptor phosphorylation by ELISA. It counts as cell-based. On the technique in general: In an ELISA, binding on a coated surface is turned into a signal by an enzyme label.
Data set [9] can be described thus: Intrinsic permeability across human Caco-2 cells. (Passage across Caco-2 layers is used to estimate intestinal permeability.)
The target in data set [10] is Cyclin-dependent kinase 2 (Homo sapiens) (UniProt P24941). In words: Inhibition of CDK2 at 10 uM by HTRF assay.
Data set [11] deals with Bcr/Abl fusion protein (Homo sapiens) (UniProt P00519+P11274). In words: Inhibition of bcr-Abl at 10 uM by HTRF assay. It is filed as protein assay.
The target in data set [12] is T2, Aurora kinase A (Homo sapiens) (UniProt O14965).
T2 sequence (whole entry): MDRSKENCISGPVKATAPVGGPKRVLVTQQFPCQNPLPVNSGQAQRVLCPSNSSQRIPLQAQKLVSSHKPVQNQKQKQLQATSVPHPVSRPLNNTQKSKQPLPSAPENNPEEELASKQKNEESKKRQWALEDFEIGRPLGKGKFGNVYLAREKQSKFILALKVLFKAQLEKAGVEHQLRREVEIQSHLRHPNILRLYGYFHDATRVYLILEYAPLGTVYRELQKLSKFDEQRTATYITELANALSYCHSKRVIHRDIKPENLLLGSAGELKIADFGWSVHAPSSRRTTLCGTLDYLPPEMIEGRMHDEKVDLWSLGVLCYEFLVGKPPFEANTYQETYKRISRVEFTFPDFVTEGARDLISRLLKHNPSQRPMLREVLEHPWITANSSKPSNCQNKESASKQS
In words: Inhibition of Aurora A at 10 uM by HTRF assay.

Data set [13] deals with Macrophage-stimulating protein receptor (Homo sapiens) (UniProt Q04912). In words: Inhibition of Ron at 10 uM by HTRF assay.
For data set [14], the target named is Hepatocyte growth factor receptor (Homo sapiens) (UniProt P08581). The data set can be described thus: Inhibition of cMET at 10 uM by HTRF assay.
Data set [15] is described as follows: Inhibition of PKA at 10 uM by HTRF assay.
For data set [16], the target named is Epidermal growth factor receptor (Homo sapiens) (UniProt P00533). The data set can be described thus: Inhibition of EGFR at 10 uM by HTRF assay.
In data set [17] the target is Fibroblast growth factor receptor 1 (Homo sapiens) (UniProt P11362). In words: Inhibition of FGFR1 at 10 uM by HTRF assay.
A short description of data set [18]: Inhibition of Bcr-Abl T315 mutant at 10 uM by HTRF assay.
For data set [19], the target named is Glycogen synthase kinase-3 beta (Homo sapiens) (UniProt P49841). The data set can be described thus: Inhibition of GSK3-beta at 10 uM by HTRF assay.
Data set [20] has as its target Aurora kinase B (Homo sapiens) (UniProt Q96GD4). The data set can be described thus: Inhibition of Aurora B at 10 uM by HTRF assay.
In data set [21] the target is Proto-oncogene tyrosine-protein kinase Src (Homo sapiens) (UniProt P12931). In words: Inhibition of Src at 10 uM by HTRF assay.
For data set [22], the target named is Serine/threonine-protein kinase PLK1 (Homo sapiens) (UniProt P53350). In words: Inhibition of Plk1 at 10 uM by HTRF assay.
Data set [23] concerns the target T1, Vascular endothelial growth factor receptor 2. The data set can be described thus: Inhibition of VEGFR2 at IC90 concentration by ATP based competition assay.
The target is the same in data set [24]. In words: Inhibition of VEGFR2 at IC50 concentration by ATP based competition assay.

Bounds are passed on as bounds.

Sequence of Cyclin-dependent kinase 1 (Homo sapiens) (P06493 whole entry, looked up): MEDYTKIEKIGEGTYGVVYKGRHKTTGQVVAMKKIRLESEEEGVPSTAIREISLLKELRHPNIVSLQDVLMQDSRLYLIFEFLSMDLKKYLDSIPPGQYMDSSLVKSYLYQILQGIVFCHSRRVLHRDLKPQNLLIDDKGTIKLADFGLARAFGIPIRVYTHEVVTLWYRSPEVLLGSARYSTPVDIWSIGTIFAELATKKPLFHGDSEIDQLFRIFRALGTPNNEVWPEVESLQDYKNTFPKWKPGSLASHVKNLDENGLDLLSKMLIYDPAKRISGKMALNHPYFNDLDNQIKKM
Sequence of Macrophage-stimulating protein receptor (Homo sapiens) (Q04912 25-304 limits assumed): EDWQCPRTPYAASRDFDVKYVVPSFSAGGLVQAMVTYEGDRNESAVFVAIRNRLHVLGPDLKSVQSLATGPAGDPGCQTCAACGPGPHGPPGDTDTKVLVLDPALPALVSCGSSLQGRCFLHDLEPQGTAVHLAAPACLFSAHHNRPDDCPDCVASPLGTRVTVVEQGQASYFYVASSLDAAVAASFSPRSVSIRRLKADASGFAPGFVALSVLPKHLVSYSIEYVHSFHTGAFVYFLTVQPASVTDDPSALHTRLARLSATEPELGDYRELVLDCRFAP
Sequence of Macrophage-stimulating protein receptor (Homo sapiens) (Q04912 310-1400 limits assumed): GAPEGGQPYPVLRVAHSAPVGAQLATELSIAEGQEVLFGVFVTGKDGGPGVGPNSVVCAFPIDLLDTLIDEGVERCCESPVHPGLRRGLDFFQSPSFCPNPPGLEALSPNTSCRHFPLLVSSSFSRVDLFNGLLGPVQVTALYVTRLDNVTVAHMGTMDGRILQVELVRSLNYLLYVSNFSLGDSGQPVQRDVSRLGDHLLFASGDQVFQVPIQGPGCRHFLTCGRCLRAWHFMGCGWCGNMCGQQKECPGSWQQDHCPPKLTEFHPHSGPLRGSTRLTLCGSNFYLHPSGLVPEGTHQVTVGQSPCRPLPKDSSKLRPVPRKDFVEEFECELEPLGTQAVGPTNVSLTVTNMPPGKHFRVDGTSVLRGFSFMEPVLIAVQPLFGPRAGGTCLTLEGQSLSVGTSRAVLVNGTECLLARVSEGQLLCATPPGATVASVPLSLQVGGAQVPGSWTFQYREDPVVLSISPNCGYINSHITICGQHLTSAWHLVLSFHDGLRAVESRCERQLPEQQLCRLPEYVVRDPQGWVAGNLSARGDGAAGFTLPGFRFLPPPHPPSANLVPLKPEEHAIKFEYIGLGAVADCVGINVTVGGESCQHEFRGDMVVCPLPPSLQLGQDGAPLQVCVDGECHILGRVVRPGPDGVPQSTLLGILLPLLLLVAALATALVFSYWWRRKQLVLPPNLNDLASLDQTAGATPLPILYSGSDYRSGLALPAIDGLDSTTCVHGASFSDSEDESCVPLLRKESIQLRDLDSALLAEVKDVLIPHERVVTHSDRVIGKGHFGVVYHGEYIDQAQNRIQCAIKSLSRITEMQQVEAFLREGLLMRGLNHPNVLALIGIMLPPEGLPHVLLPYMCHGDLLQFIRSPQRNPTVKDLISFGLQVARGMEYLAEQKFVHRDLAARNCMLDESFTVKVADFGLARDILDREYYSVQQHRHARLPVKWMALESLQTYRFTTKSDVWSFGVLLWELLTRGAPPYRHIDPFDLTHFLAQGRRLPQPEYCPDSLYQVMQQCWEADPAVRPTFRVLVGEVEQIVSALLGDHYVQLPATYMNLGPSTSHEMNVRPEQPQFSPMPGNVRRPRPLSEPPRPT
Sequence of Aurora kinase B (Homo sapiens) (Q96GD4 whole entry): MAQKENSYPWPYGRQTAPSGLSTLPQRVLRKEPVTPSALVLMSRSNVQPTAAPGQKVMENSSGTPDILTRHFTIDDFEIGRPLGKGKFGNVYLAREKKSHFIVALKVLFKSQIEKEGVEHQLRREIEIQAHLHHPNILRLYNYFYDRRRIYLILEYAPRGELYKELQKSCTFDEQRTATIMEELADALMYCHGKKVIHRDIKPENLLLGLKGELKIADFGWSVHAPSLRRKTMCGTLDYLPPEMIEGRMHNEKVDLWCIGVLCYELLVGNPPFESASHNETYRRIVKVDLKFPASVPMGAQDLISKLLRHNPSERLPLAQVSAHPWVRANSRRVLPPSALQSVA
Sequence of Hepatocyte growth factor receptor (Homo sapiens) (P08581 whole entry): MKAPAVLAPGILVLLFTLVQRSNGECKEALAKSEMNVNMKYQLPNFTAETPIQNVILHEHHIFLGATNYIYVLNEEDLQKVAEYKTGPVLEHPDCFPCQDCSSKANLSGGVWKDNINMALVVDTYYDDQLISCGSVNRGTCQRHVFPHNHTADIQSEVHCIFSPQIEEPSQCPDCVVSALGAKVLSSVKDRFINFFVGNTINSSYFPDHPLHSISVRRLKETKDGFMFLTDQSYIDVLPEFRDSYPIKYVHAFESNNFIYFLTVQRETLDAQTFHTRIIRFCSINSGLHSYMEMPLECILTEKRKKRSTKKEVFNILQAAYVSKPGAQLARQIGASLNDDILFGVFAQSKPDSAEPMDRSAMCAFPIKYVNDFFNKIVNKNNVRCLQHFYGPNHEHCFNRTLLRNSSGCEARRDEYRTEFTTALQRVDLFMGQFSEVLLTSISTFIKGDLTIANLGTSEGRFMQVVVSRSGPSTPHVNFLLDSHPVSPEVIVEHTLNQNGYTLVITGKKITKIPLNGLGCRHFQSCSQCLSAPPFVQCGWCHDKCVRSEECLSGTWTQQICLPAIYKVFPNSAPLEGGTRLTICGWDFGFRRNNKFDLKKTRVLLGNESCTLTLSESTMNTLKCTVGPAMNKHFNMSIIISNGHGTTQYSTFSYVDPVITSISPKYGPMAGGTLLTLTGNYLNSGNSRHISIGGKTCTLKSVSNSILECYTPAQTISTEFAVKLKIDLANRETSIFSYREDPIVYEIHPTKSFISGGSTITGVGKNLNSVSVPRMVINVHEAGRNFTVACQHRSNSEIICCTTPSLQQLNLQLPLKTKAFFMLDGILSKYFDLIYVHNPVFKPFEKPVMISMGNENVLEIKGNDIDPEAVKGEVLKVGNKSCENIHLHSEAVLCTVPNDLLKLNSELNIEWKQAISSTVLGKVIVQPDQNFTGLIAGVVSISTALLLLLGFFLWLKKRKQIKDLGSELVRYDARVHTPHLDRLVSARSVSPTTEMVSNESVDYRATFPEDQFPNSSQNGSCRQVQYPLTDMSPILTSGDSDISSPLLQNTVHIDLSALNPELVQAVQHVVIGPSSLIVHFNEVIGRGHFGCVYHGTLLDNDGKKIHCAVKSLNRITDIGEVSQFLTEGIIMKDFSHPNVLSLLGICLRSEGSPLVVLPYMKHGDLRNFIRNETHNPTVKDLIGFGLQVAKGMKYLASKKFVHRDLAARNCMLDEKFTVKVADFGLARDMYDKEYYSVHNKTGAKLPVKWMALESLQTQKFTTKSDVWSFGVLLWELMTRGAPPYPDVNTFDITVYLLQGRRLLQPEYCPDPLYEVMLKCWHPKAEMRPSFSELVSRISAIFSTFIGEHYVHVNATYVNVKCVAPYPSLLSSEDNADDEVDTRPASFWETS
T1 sequence (P35968 whole entry): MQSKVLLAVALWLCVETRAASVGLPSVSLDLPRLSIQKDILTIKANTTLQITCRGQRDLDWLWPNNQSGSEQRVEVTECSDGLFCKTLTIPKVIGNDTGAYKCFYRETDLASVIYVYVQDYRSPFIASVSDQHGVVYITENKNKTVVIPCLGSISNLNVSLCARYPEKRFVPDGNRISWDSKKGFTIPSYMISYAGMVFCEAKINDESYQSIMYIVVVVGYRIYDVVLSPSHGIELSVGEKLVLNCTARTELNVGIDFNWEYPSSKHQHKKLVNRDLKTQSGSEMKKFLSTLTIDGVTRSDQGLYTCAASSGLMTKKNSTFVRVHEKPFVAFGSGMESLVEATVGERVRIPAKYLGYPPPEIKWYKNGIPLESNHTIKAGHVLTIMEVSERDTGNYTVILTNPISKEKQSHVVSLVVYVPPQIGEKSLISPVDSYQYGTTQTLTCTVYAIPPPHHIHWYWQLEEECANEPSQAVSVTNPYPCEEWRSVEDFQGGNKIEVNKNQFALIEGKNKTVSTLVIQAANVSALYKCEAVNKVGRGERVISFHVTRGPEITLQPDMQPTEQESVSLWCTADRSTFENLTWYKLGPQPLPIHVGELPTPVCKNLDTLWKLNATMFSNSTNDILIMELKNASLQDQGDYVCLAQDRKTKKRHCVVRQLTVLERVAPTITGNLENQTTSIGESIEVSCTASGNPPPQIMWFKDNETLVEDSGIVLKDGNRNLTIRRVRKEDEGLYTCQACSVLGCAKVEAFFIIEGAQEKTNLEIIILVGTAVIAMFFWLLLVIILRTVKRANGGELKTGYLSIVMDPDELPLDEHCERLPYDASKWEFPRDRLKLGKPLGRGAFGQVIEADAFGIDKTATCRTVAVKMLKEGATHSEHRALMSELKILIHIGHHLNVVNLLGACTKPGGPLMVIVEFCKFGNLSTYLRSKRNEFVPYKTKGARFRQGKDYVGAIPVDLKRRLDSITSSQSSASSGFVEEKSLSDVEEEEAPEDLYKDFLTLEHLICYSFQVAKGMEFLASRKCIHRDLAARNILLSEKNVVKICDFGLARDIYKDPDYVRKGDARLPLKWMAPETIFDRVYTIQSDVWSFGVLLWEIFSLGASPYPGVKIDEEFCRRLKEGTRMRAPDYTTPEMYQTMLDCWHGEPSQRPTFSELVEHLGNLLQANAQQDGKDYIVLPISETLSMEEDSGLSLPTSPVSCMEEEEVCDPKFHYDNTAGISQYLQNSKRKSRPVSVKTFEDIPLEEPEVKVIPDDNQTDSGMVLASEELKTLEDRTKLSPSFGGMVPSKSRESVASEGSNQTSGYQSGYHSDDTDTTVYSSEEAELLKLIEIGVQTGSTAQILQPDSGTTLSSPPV

As for `Cc1ccc(NC(=O)c2nscc2NCc2ccncc2)cc1C(F)(F)F`, the inhibition in data set [1], in data set [4], in data set [5], in data set [6], in data set [7] and in [10] was less than 30% each time. Further, the inhibition in data set [11], in [12], in data set [13], in data set [14], in data set [15] and in data set [16] was less than 30% each time. For the same compound, the inhibition in data set [17], in data set [18], in data set [19], in data set [20], in [21] and in data set [22] was less than 30% throughout. In addition, the IC50 in data set [2] was 190 nM; in data set [3] it was 43 nM; in [8], 56 nM. For the same compound, the Papp in data set [9] is 5.9 ×10⁻⁶ cm/s.

As for `O=C(Nc1cccc(C(F)(F)F)c1)c1nscc1NCc1ccncc1`, the inhibition in data set [1], in data set [4], in data set [5], in [6], in [7] and in [10] was less than 30% in each case. Besides, the inhibition in [11], in data set [12], in data set [13], in data set [14], in data set [15] and in data set [16] was less than 30% throughout. The inhibition in data set [17], in data set [18], in [19], in [20], in [21] and in data set [22] was less than 30% in each case. For the same compound, the values for the IC50 in data set [2], in [3] and in [8] were 170 nM, 41 nM and 54 nM, respectively. This compound also showed a Papp in data set [9] of 6.98 ×10⁻⁶ cm/s. The Ki in [23] stood at 130 nM; in [24] it was 160 nM.

Turning to `O=C(Nc1cccc(OC(F)(F)F)c1)c1nscc1NCc1ccncc1`, the inhibition in data set [1], in data set [4], in data set [5], in [6], in data set [7] and in [10] was less than 30% throughout. Besides, the inhibition in [11], in data set [12], in data set [13], in data set [14], in data set [15] and in [16] was less than 30% in each case. Moreover, the inhibition in [17], in [18], in data set [19], in data set [20], in [21] and in [22] was less than 30% in each case. Also, the IC50 in data set [2] is 260 nM; in data set [3] it was 33 nM; in data set [8], 41 nM. In data set [9], this compound gave a Papp of 7.93 ×10⁻⁶ cm/s.

Turning to `O=C(Nc1ccc(Br)cc1)c1nscc1NCc1ccncc1`, the inhibition in [1], in data set [4], in [5], in data set [6], in [7] and in [10] was less than 30% throughout. The inhibition in data set [11], in data set [12], in data set [13], in data set [14], in [15] and in data set [16] was less than 30% each time. Further, the inhibition in data set [17], in data set [18], in data set [19], in [20], in data set [21] and in data set [22] was less than 30% throughout. The IC50 came to 260 nM in data set [2], 230 nM in [3] and 1040 nM in data set [8]. Moreover, the Ki amounted to 70 nM in [23] and 90 nM in data set [24].
